Measured values reported in ChEMBL document CHEMBL4308841, “Synthesis, in vitro antiproliferative activity, and kinase inhibitory effects of pyrazole-containing diarylureas and diarylamides” (Eur J Med Chem, 2018).

Columns and labels:
[1] = biological target: Serine/threonine-protein kinase A-Raf (Homo sapiens) (UniProt P10398); assay: Inhibition of human ARAF at 10 uM using MEK1 (K97R) as substrate after 40 mins in presence of [gamma33P]ATP by scintillation counting method relative to control
[2] = system: TK-10; assay: Growth inhibition of human TK10 cells assessed as cell growth at 100 uM incubated for 48 hrs by sulforhodamine B assay relative to control; format: functional; conditions: TK-10, 48 h, read-out: Activity
[3] = system: RPMI-8226; assay: Induction of apoptosis in human RPMI8226 cells assessed as increase in caspase 3/7 level at 10 uM relative to control; format: functional
[4] = system: Serine/threonine-protein kinase B-raf (Homo sapiens), P15056 [V600E]; assay: Inhibition of human BRAF V600E mutant at 10 uM using MEK1 (K97R) as substrate after 40 mins in presence of [gamma33P]ATP by scintillation counting method relative to control
[5] = biological target: PI3-kinase p110-alpha/p85-alpha (Homo sapiens) (UniProt P27986+P42336); assay: Inhibition of human PI3K p110a/p85a at 10 uM using PI(4,5)P2:PS as substrate after 40 mins in presence of [gamma33P]ATP by scintillation counting method relative to control; format: protein-complex assay
[6] = biological target: Platelet-derived growth factor receptor beta (Homo sapiens) (UniProt P09619); assay: Inhibition of human PDGFRb at 10 uM using poly[Glu:Tyr] (4:1) as substrate after 40 mins in presence of [gamma33P]ATP by scintillation counting method relative to control
[7] = system: TK-10; assay: Growth inhibition of human TK10 cells assessed as cell growth at 1 uM incubated for 48 hrs by sulforhodamine B assay relative to control; format: functional; conditions: TK-10, 48 h, read-out: Activity
[8] = biological target: ALK tyrosine kinase receptor (Homo sapiens) (UniProt Q9UM73); assay: Inhibition of human ALK at 10 uM using poly[Glu:Tyr] (4:1) as substrate after 40 mins in presence of [gamma33P]ATP by scintillation counting method relative to control
[9] = biological target: Vascular endothelial growth factor receptor 2 (Homo sapiens) (UniProt P35968); assay: Inhibition of human VEGFR2 at 10 uM using poly[Glu:Tyr] (4:1) as substrate after 40 mins in presence of [gamma33P]ATP by scintillation counting method relative to control
[10] = system: HOP-92; assay: Growth inhibition of human HOP92 cells assessed as cell growth at 0.01 uM incubated for 48 hrs by sulforhodamine B assay relative to control; format: functional; conditions: HOP-92, 48 h, read-out: Activity
[11] = biological target: Receptor-type tyrosine-protein kinase FLT3 (Homo sapiens) (UniProt P36888); assay: Inhibition of human FLT3 at 10 uM using EAIYAAPFAKKK as substrate after 40 mins in presence of [gamma33P]ATP by scintillation counting method relative to control
[12] = biological target: Macrophage colony-stimulating factor 1 receptor (Homo sapiens) (UniProt P07333); assay: Inhibition of human FMS at 10 uM using poly[Glu:Tyr] (4:1) as substrate after 40 mins in presence of [gamma33P]ATP by scintillation counting method relative to control
[13] = biological target: Mitogen-activated protein kinase 14 (Homo sapiens) (UniProt Q16539); assay: Inhibition of human p38alpha at 10 uM using myelin basic protein as substrate after 40 mins in presence of [gamma33P]ATP by scintillation counting method relative to control
[14] = system: TK-10; assay: Growth inhibition of human TK10 cells assessed as cell growth at 0.1 uM incubated for 48 hrs by sulforhodamine B assay relative to control; format: functional; conditions: TK-10, 48 h, read-out: Activity
[15] = system: HOP-92; assay: Growth inhibition of human HOP92 cells assessed as cell growth at 100 uM incubated for 48 hrs by sulforhodamine B assay relative to control; format: functional; conditions: HOP-92, 48 h, read-out: Activity
[16] = biological target: Serine/threonine-protein kinase B-raf (Homo sapiens, UniProt P15056, V600E); assay: Inhibition of human BRAF V600E mutant using MEK1 (K97R) as substrate after 40 mins in presence of [gamma33P]ATP by scintillation counting method
[17] = system: TK-10; assay: Growth inhibition of human TK10 cells assessed as cell growth at 0.01 uM incubated for 48 hrs by sulforhodamine B assay relative to control; format: functional; conditions: TK-10, 48 h, read-out: Activity
[18] = biological target: Tyrosine-protein kinase JAK1 (Homo sapiens) (UniProt P23458); assay: Inhibition of human JAK1 at 10 uM using poly[Glu:Tyr] (4:1) as substrate after 40 mins in presence of [gamma33P]ATP by scintillation counting method relative to control
[19] = biological target: DNA-dependent protein kinase catalytic subunit (Homo sapiens) (UniProt P78527); assay: Inhibition of human DNAPK at 10 uM using EPPLSQEAFADLWKK as substrate after 40 mins in presence of [gamma33P]ATP by scintillation counting method relative to control
[20] = biological target: Epidermal growth factor receptor (Homo sapiens) (UniProt P00533); assay: Inhibition of human EGFR at 10 uM using poly[Glu:Tyr] (4:1) as substrate after 40 mins in presence of [gamma33P]ATP by scintillation counting method relative to control
Chain of Epidermal growth factor receptor (Homo sapiens) (P00533 whole entry): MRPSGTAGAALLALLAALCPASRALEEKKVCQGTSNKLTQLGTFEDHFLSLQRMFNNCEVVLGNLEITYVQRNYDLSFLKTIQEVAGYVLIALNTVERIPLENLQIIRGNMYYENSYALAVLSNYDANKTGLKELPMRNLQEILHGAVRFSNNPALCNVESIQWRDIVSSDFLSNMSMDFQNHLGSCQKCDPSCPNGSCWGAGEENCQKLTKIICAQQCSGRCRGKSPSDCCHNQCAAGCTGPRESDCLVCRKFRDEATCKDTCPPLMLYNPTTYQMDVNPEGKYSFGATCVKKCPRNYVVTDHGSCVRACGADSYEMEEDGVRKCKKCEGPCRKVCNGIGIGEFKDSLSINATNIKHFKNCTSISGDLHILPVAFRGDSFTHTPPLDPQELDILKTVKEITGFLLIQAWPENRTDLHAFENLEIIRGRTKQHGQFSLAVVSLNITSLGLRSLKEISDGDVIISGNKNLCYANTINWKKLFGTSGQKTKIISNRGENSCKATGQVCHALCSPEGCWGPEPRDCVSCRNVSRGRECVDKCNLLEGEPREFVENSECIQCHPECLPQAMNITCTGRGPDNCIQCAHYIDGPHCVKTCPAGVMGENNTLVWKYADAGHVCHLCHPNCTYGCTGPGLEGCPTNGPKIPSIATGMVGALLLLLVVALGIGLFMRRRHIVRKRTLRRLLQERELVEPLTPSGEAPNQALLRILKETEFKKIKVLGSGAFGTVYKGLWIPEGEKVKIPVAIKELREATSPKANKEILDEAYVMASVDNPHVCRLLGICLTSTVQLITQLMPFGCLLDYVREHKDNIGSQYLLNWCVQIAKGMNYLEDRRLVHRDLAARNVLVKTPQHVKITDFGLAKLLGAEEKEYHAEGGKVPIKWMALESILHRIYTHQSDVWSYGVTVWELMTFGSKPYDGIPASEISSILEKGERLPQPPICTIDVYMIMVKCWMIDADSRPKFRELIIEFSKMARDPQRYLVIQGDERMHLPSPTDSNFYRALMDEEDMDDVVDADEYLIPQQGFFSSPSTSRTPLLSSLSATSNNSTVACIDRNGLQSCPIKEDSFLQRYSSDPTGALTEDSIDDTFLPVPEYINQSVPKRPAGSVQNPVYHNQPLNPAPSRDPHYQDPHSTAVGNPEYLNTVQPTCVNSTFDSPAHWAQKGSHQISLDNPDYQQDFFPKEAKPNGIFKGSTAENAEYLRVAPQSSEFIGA

Chain of Tyrosine-protein kinase JAK1 (Homo sapiens) (P23458 whole entry): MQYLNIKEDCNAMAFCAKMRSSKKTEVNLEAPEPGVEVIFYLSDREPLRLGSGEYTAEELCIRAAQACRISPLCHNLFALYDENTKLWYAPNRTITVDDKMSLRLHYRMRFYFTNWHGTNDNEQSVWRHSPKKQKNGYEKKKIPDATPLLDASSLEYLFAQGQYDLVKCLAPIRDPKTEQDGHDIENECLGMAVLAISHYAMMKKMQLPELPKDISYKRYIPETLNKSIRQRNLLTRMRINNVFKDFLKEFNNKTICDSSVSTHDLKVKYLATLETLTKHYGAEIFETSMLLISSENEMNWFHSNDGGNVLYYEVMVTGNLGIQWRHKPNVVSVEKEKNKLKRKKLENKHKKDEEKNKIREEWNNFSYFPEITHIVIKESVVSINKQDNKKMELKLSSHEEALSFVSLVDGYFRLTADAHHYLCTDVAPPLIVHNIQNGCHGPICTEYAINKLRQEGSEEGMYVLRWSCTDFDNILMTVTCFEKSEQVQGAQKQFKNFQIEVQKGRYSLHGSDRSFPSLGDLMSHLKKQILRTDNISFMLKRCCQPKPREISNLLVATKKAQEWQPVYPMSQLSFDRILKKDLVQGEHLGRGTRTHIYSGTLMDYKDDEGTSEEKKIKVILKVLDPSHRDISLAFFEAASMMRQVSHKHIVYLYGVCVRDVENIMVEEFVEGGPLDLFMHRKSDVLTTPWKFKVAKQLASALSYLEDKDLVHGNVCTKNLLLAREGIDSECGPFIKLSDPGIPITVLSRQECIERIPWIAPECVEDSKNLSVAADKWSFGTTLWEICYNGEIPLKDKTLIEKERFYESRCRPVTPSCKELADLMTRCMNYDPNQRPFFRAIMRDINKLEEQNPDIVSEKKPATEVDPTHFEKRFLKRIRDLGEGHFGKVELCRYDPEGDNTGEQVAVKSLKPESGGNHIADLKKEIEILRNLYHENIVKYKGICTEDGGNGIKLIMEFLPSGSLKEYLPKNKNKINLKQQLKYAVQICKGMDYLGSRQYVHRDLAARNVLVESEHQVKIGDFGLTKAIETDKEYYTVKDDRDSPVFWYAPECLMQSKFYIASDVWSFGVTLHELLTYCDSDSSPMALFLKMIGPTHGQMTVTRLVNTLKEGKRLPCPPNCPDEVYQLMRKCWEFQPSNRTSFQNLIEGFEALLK
Chain of Platelet-derived growth factor receptor beta (Homo sapiens) (P09619 whole entry): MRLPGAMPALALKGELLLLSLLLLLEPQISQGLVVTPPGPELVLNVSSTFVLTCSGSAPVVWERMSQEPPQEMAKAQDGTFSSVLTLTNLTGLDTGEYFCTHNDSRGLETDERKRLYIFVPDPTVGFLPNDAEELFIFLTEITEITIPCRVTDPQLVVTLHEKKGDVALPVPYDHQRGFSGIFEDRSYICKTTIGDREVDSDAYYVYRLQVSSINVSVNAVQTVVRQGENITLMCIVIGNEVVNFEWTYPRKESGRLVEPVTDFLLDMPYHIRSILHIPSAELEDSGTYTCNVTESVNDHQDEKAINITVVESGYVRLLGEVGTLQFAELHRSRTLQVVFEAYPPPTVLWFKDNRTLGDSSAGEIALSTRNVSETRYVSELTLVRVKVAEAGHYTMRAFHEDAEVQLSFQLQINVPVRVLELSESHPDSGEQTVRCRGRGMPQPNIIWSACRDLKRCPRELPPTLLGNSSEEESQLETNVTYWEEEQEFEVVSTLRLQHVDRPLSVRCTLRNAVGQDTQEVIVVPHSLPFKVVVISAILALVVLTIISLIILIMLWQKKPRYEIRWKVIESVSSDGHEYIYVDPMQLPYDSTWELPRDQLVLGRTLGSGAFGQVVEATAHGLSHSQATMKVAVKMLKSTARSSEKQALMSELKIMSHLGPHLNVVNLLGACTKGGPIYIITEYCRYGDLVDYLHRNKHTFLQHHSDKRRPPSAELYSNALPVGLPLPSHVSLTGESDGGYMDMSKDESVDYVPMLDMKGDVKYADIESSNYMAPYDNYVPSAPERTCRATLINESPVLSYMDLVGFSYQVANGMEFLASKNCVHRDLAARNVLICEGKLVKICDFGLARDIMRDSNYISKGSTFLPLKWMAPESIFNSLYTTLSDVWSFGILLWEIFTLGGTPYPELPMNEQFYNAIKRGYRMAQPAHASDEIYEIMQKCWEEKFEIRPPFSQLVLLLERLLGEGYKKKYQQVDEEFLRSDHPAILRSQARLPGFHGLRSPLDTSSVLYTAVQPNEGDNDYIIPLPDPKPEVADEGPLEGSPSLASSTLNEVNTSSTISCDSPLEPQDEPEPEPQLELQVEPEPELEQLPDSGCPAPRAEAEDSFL
Chain of Receptor-type tyrosine-protein kinase FLT3 (Homo sapiens) (P36888 whole entry): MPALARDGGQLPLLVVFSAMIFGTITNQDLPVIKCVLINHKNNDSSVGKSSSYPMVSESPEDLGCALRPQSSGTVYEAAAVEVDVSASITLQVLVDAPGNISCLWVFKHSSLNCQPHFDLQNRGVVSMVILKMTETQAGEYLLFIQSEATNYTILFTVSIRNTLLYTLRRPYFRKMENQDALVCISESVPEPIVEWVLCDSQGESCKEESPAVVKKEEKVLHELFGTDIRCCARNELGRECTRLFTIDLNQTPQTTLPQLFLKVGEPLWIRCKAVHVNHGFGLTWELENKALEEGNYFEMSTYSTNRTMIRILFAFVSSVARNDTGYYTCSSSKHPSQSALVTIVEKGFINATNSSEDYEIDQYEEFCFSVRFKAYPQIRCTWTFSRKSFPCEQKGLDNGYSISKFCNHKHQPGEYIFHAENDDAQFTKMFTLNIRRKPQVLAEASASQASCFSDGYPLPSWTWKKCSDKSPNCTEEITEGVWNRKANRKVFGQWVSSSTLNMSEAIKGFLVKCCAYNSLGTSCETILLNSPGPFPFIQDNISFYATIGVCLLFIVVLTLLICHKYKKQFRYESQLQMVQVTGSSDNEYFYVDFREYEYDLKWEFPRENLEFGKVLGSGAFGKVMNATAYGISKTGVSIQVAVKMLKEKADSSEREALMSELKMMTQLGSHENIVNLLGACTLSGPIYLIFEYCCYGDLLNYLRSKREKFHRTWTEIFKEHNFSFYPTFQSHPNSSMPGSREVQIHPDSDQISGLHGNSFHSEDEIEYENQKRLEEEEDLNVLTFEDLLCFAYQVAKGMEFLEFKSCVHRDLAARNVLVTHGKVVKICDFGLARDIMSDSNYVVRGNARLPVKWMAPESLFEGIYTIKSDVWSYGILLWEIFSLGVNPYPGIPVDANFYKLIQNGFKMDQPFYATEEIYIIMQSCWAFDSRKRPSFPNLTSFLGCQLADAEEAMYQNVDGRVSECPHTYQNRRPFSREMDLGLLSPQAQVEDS
Chain of Mitogen-activated protein kinase 14 (Homo sapiens) (Q16539 whole entry): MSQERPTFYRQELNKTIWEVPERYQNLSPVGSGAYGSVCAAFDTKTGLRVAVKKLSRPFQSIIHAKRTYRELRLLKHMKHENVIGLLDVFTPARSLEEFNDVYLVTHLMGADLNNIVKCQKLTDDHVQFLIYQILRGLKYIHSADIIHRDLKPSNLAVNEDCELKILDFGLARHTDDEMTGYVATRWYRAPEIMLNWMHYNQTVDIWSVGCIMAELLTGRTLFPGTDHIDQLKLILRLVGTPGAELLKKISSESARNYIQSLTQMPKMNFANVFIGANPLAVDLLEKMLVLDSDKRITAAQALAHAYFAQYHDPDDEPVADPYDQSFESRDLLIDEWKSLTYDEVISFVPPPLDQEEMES

COc1cc(Cl)cc(-c2nn(-c3cccc(NC(=O)Nc4cc(C(F)(F)F)cc(C(F)(F)F)c4)c3)cc2-c2ccncc2)c1
inhibition [1]: 49.2%
growth at 100 µM [2]: -91%
fold change (FC) [3]: 2.79
inhibition [4]: 94.7%
inhibition [5]: 16.8%
inhibition [6]: -9.26%
growth at 1 µM [7]: 42%
inhibition [8]: -3.77%
inhibition [9]: -5.83%
growth at 0.01 µM [10]: 93%
inhibition [11]: -2.82%
inhibition [12]: -0.94%
inhibition [13]: -5.41%
growth at 0.1 µM [14]: 90%
growth at 100 µM [15]: -77%
IC50 [16]: 390 nM
growth at 0.01 µM [17]: 96%
inhibition [18]: 10.7%
inhibition [19]: 3.5%
inhibition [20]: -7.47%
